Experimental data as given in PubChem BioAssay (NCI).
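Interpolation was linear, between the two tested concentrations surrounding the appropriate level; five concentrations were tested over 48 hours in 96-well plates. Here, GI50 denotes the concentration required for 50% inhibition of growth. TGI marks complete inhibition of growth.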 Where a SMILES comes first, the peptide text is derived from it. Bridges are numbered along the chain shown (N, C = ends). Roman numbers before positions name the chains, in order. [ ]: non-standard residue; d: D form. The star is where a group is joined. Quinoxaline2carbonyl = O=C(c1cnc2ccccc2n1)*; NMeV = CN[CH](C(=O)O)C(C)C; NMeC = CN[CH](CS)C(=O)O

How the values were obtained:
Test in all cases: NCI tumour cell line growth inhibition, 48 h
A498 renal = test system: A498 renal
CCRF-CEM leukemia = test system: CCRF-CEM leukemia
HT29 colon = test system: HT29 colon
KM12 colon = test system: KM12 colon
NCI-H460 lung = test system: NCI-H460 lung
OVCAR-8 ovarian = test system: OVCAR-8 ovarian
UACC-257 melanoma = test system: UACC-257 melanoma
UO-31 renal = test system: UO-31 renal

| Compound | GI50 (A498 renal) | TGI (A498 renal) | GI50 (CCRF-CEM leukemia) | TGI (CCRF-CEM leukemia) | GI50 (HT29 colon) | TGI (HT29 colon) | GI50 (KM12 colon) | TGI (KM12 colon) | GI50 (NCI-H460 lung) | TGI (NCI-H460 lung) | GI50 (OVCAR-8 ovarian) | TGI (OVCAR-8 ovarian) | GI50 (UACC-257 melanoma) | TGI (UACC-257 melanoma) | GI50 (UO-31 renal) | TGI (UO-31 renal) |
| --- | --- | --- | --- | --- | --- | --- | --- | --- | --- | --- | --- | --- | --- | --- | --- | --- |
| COc1ccc(OC)c(Cn2cc3c(c2)-c2oncc2CC3)c1 | 1.73 µM | 7.22 µM | 2.13 µM | > 26 µM | 2.35 µM | 10.9 µM | 3.02 µM | 39.4 µM | 3.26 µM | 17.7 µM | 5.27 µM | > 100 µM | 5.11 µM | > 82.4 µM | 4.13 µM | 38.8 µM |
| CC(C)=CCC/C(C)=C/CC/C(C)=C/CC/C=C(\C)CC/C=C(\C)CCC(=O)Nc1ccn(C2OC(CO)C(O)C2(F)F)c(=O)n1 (stereo not drawn) | 0.0695 µM | 18.5 µM | 0.0639 µM | 0.525 µM | 0.594 µM | 48.9 µM | 0.181 µM | 18.1 µM | 0.0444 µM | 3.74 µM | 0.0652 µM | > 100 µM | 0.252 µM | 8.22 µM | 0.0501 µM | 14.7 µM |
| CC(=O)c1c(C(F)(F)F)n([O-])c2ccc(C)cc2[n+]1=O | 4.42 µM | 18.9 µM | 0.555 µM | 4.83 µM | 4.96 µM | > 100 µM | 5.04 µM | > 52.2 µM | 1.39 µM | > 39.8 µM | 3.82 µM | > 100 µM | 4.42 µM | > 46.8 µM | 4.39 µM |  |
| Cc1ccc(NC(=O)c2ccccc2C(=O)O)cc1C |  | > 100 µM |  |  |  | > 100 µM |  | > 100 µM |  | > 100 µM |  | > 100 µM |  | > 100 µM |  |  |
| Cn1cncc1CC1COC(=O)C1C(O)c1ccccc1 (stereo not drawn) |  | > 100 µM |  | > 100 µM |  | > 100 µM |  | > 100 µM |  | > 100 µM |  | > 100 µM |  | > 100 µM |  |  |
| COc1ccc(-c2cc(=O)c3c(OC)c(OC)c(OC)c(OC)c3o2)cc1 |  | 83.9 µM |  | > 100 µM |  | > 100 µM |  |  |  | > 100 µM |  | > 100 µM |  | > 100 µM |  | > 100 µM |
| COc1ccc2c(c1OC)C(=O)OC2C1c2c(c([N+](=O)[O-])c3c(c2OC)OCO3)CCN1C (stereo not drawn) | > 100 µM | > 100 µM |  |  | 28.7 µM | > 100 µM | > 100 µM | > 100 µM | > 100 µM | > 100 µM | > 100 µM | > 100 µM | > 100 µM | > 100 µM | > 100 µM | > 100 µM |
| CC1NC(=O)C(NC(=O)c2cnc3ccccc3n2)COC(=O)C(C(C)C)N(C)C(=O)C2CSSCC(C(=O)N(C)C(C(C)C)C(=O)OCC(NC(=O)c3cnc4ccccc4n3)C(=O)NC(C)C(=O)N2C)N(C)C1=O (stereo not drawn) (I: Quinoxaline2carbonyl-SA[NMeC][NMeV] / II: Quinoxaline2carbonyl-SA[NMeC][NMeV]; ester I:1-II:C, I:C-II:1; disulfide I:3-II:3; configuration not given here) |  | < 0.01 µM |  | 0.229 µM |  |  |  | 3.17 µM |  | 2.23 µM |  | < 0.215 µM |  | 0.0162 µM |  |  |
| COc1ccc(C2[C@@H](Cl)C(=O)N2c2cc(OC)c(OC)c(OC)c2)cc1Cl (stereo partly drawn) | 0.0285 µM | 0.263 µM | 0.19 µM | 39.4 µM | 0.221 µM | 0.752 µM | 0.178 µM | 18.5 µM | 0.317 µM | 6.95 µM | 0.272 µM | 20.5 µM |  |  | 1.09 µM | 32.7 µM |
| CCOc1nc(N)nc(C)c1N=Nc1ccc(Cl)cc1 |  |  |  | > 100 µM |  | > 100 µM |  | > 100 µM |  | > 100 µM |  | > 100 µM |  | > 100 µM |  | > 100 µM |
